The source made the active and inactive calls. No cut-off for these calls is given here.

The values below come from ChEMBL document CHEMBL5370642, “Synthesis and Bioevaluation of 3-(Arylmethylene)indole Derivatives: Discovery of a Novel ALK Modulator with Antiglioblastoma Activities” (J Med Chem, 2023).

Data set [1] can be described thus: AUC (0 to infinity) in C57BL6/J mouse at 5 mg/kg, iv measured upto 24 hrs by LC-MS/MS analysis. The format is ADME, organism-based. Details: dose 5 mg/kg, time < 24 hrs, route iv. The following applies: in vivo.
Data set [2] is described as follows: MRT (0 to 8hrs) in C57BL6/J mouse at 5 mg/kg, ip measured upto 24 hrs by LC-MS/MS analysis. It is filed as ADME, organism-based. The conditions noted are these: in vivo.
Data set [3] in a line: Drug uptake in C57BL6/J mouse brain at 20 mg/kg, ip measured after 2 hrs by LC-MS/MS analysis. It is filed as ADME, organism-based. The conditions noted are these: in vivo.
The target of data set [4] is ALK tyrosine kinase receptor (Mus musculus) (UniProt P97793). The experiment in a line: Binding affinity to ALK in mouse GL261 cell lysate assessed as increase in thermal stability of the protein measured after 4 hrs by […] based CETSA analysis. It is filed as subcellular.
Chain of ALK tyrosine kinase receptor (Mus musculus) (P97793 whole entry): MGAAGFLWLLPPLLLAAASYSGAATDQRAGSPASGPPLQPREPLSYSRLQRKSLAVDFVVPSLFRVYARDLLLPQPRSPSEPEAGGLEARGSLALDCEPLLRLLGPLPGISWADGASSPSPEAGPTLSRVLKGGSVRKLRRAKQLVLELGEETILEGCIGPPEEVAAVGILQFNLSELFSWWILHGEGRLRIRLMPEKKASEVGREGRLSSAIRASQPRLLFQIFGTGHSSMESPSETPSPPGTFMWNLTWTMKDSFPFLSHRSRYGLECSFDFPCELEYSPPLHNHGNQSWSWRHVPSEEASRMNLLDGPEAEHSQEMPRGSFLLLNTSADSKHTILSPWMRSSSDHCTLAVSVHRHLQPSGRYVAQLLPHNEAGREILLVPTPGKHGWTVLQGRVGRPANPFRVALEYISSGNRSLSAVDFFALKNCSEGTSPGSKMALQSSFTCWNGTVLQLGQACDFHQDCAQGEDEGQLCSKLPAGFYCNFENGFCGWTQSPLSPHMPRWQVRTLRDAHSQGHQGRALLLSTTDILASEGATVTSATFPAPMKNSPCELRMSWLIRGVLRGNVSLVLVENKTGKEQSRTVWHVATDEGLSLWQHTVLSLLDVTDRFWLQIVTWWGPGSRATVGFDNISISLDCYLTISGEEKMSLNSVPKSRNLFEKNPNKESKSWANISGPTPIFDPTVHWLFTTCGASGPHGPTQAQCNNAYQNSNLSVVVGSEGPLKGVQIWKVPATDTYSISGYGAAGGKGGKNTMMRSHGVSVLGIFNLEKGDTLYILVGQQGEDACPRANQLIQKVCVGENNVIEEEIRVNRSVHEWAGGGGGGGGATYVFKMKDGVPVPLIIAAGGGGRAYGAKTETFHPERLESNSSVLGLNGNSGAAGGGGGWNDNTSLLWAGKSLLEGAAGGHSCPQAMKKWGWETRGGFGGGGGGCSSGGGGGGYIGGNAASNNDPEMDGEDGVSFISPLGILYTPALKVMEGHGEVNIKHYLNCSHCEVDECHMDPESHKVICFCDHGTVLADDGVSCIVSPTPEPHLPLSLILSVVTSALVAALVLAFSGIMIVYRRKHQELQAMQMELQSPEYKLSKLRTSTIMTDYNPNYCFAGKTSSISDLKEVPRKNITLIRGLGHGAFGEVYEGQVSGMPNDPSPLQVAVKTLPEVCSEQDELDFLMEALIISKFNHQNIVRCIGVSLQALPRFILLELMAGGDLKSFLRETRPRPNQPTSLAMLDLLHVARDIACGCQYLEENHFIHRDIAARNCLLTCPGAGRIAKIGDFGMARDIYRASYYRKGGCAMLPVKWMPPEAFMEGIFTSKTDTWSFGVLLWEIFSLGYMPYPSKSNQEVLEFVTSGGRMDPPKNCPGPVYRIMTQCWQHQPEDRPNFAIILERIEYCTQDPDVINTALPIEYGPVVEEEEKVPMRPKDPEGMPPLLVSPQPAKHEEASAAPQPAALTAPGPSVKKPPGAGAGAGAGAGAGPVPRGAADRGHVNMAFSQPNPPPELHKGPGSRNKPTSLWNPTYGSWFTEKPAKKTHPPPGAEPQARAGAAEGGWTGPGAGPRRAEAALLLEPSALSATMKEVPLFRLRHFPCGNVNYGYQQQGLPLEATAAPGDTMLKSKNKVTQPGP
For data set [5] the target is unchanged. The experiment in a line: Binding affinity to ALK in mouse GL261 cell lysate assessed as immunoprecipitation measured after overnight incubation by pull-down assay. The format is subcellular.
Data set [6] shares this target. Nature of the data set: Inhibition of ALK phosphorylation in mouse GL261 cells at 0.5 to 2 uM incubated for 24 hrs by Western blot analysis. The format is cell-based. The following applies: dose 0.5-2 µM.
A further data set relates to HeLa. Nature of the data set: Anti-proliferative activity against human HeLa cells assessed as inhibition rate at 160 uM incubated for 24 to 72 hrs by CCK8 assay relative to control. The format is functional. The following applies: time 24-72 hrs.
Data set [7] has as its system GL261. The experiment in a line: Induction of autophagy in mouse GL261 cells assessed as decrease in mTOR phosphorylation at 0.5 to 2 uM incubated for 24 hrs by Western blot analysis. The format is functional, cell-based. The following applies: dose 0.5-2 µM.
For data set [8], the system named is GL261. Nature of the data set: Induction of autophagy in mouse GL261 cells transfected with mRFP-GFPLC3 adenovirus assessed as yellow fluorescence pretreated with CQ for 30 mins followed by treated at 2 uM measured after 48 hrs by confocal microscopy. It is filed as functional, cell-based.
Data set [9] has as its system GL261. The experiment in a line: Induction of apoptosis in mouse GL261 cells assessed as increase in annexin-V+/PI- cells incubated for 24 to 72 hrs by flow cytometry. It is filed as functional, cell-based. The conditions noted are these: dose 0.5-2 µM, time 24-72 hrs.
In data set [10] the test system is GL261. Nature of the data set: Induction of apoptosis in mouse GL261 cells assessed as increase in cleaved PARP level measured at 0.5 to 2 uM after 24 hrs by Western blot analysis. It is filed as functional, cell-based. The conditions noted are these: dose 0.5-2 µM.
For data set [11], the system named is GL261. The experiment in a line: In vivo induction of apoptosis in mouse GL261 cells transfected with mRFP-GFPLC3 adenovirus allografted in C57BL/6J mouse model assessed as increase in cleaved PARP level in tumor tissue at 2.5 to 5 mg/kg, ip by immunofluorescence assay. It is filed as functional, organism-based. The conditions noted are these: dose 2.5-5 mg/kg.

The test system of data set [12] is GL261. Nature of the data set: Induction of cell cycle arrest in mouse GL261 cells assessed as accumulation of cells at S phase at 0.5 to 2 uM incubated for 24 to 72 hrs by flow cytometry. It is filed as functional. The conditions noted are these: dose 0.5-2 µM, time 24-72 hrs.
A short description of data set [13]: Bioavailability in C57BL6/J mouse at 5 mg/kg, […] measured upto 24 hrs by LC-MS/MS analysis. The format is ADME, organism-based. The following applies: in vivo.
The target in data set [14] is ALK tyrosine kinase receptor (Homo sapiens, UniProt Q9UM73). The following applies: U-87 MG, dose 0.5-2 µM, time 24.0 hrs.
Chain of ALK tyrosine kinase receptor (Q9UM73 19-1620 limits assumed): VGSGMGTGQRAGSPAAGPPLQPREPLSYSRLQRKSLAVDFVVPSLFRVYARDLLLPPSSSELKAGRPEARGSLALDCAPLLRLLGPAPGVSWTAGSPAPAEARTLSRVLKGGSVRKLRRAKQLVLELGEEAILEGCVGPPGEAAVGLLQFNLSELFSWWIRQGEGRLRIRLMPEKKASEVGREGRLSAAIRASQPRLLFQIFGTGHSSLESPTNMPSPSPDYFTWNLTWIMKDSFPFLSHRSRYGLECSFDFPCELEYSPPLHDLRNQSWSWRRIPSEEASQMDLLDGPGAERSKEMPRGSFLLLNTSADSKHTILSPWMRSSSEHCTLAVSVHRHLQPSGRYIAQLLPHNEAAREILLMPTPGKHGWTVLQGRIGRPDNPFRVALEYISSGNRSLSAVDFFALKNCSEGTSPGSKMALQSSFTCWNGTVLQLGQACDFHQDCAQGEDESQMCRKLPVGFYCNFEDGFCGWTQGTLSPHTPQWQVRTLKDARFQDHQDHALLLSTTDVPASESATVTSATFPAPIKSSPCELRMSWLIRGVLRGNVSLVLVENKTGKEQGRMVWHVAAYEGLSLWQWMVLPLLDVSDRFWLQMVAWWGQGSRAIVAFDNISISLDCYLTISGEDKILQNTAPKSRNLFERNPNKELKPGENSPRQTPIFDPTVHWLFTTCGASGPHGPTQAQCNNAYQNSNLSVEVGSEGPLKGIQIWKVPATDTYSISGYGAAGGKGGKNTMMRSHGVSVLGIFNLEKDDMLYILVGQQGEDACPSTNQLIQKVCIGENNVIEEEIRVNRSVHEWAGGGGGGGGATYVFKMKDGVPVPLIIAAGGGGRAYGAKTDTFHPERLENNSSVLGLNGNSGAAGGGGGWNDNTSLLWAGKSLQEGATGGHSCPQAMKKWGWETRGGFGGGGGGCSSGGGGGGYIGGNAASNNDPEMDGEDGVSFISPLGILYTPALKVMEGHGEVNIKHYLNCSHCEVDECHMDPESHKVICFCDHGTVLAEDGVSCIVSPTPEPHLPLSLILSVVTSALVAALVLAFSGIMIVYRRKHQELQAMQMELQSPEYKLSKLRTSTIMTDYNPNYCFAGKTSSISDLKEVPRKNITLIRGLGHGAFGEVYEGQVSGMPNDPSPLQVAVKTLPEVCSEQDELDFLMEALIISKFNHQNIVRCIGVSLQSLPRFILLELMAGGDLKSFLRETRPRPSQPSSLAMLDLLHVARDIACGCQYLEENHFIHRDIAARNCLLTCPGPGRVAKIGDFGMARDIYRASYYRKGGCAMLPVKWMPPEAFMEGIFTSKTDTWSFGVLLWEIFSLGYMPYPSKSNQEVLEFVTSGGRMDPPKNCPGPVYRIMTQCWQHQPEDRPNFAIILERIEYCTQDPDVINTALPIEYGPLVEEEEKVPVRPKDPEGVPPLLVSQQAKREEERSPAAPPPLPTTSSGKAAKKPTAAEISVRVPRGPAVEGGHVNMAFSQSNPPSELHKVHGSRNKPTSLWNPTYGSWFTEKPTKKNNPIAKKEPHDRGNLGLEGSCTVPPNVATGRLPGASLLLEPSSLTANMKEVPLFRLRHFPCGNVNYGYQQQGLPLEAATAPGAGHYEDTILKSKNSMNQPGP

On to `Cc1ccc(S(=O)(=O)n2cc(Cc3cc(C)c(O)c(C)c3)c3ccccc32)cc1`, for which the AUC(0-inf) in data set [1] worked out at 925 ng·h/mL. In data set [2], this compound registered an MRT last at 24 h of 2.25 h. Also, in data set [3], the Drug uptake amounted to 2.7 µmol/kg. Moreover, the outcome (in [4]; in [5]; in the data set with GL261 [7]; with GL261 [10]; in the data set on GL261 [11]) was Active. In addition, the inhibition result in data set [6] and in data set [14] was “Active” throughout. In addition, the inhibition at 160 µM in the data set with HeLa worked out at 50%. The outcome in the data set on GL261 [8] was inactive. The Activity result was “Dose-Dependent Effect” in the data set with GL261 [9] and 24.5% with GL261 [12]. The bioavailability in data set [13] was found to be 38.4%.
